Inconclusive results and toxic doses are left out. No stated cut-off is given here; in the data, active means T/C of 150% or more; inactive means T/C below 125%.
Test system: L1210 leukemia ip in BDF1 mice, survival T/C
Experiment: NCI In Vivo Anticancer Drug Screen. Data for tumor model L1210 Leukemia (intraperitoneal) in B6D2F1 (BDF1) mice
Details: endpoint: mean survival time, higher = longer survival
Method in brief: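 Transplantable tumor model; survival measured in treated vs vehicle control mice. Value = treated/control.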

[1] = dose: 100.0 mg/kg/injection, schedule: Q01DX001 (ip), vehicle: Klucel (hydroxypropylcellulose) (HPC)
[2] = dose: 100.0 mg/kg/injection, schedule: Q01DX009 (ip), vehicle: saline with Tween-80
[3] = dose: 200.0 mg/kg/injection, schedule: Q01DX001 (ip), vehicle: Klucel (hydroxypropylcellulose) (HPC)
[4] = dose: 200.0 mg/kg/injection, schedule: Q01DX009 (ip), vehicle: saline with Tween-80
[5] = dose: 400.0 mg/kg/injection, schedule: Q01DX001 (ip), vehicle: Klucel (hydroxypropylcellulose) (HPC)
[6] = dose: 100.0 mg/kg/injection, schedule: Q04DX003 (ip), vehicle: Klucel (hydroxypropylcellulose) (HPC)
[7] = dose: 200.0 mg/kg/injection, schedule: Q04DX003 (ip), vehicle: Klucel (hydroxypropylcellulose) (HPC)
[8] = dose: 400.0 mg/kg/injection, schedule: Q04DX003 (ip), vehicle: Klucel (hydroxypropylcellulose) (HPC)

Measured: T/C

O=C(c1ccccc1)C1(c2ccccc2)OC1(C(=O)c1ccccc1)c1ccccc1 (stereo not given)
inactive: [1] 94 % of control | [2] 92 % of control | [3] 94 % of control | [4] 101 % of control | [5] 87 % of control | dose: 400.0 mg/kg/injection, schedule: Q01DX009 (ip), vehicle: saline with Tween-80 95 % of control

N=C1C(=O)C(=N)c2ccccc2-c2ccccc21
inactive: dose: 100.0 mg/kg/injection, schedule: Q01DX009 (ip), vehicle: Klucel (hydroxypropylcellulose) (HPC) 94 % of control | dose: 200.0 mg/kg/injection, schedule: Q01DX009 (ip), vehicle: Klucel (hydroxypropylcellulose) (HPC) 97 % of control | dose: 400.0 mg/kg/injection, schedule: Q01DX009 (ip), vehicle: Klucel (hydroxypropylcellulose) (HPC) 95 % of control

COc1ccc(-c2cnc(=S)[nH]c2N)cc1
inactive: [1] 116 % of control | [3] 121 % of control | [5] 119 % of control

CC(C(=O)c1ccccc1)C(O)(C(F)(F)F)C(F)(F)F (stereo not given)
inactive: dose: 100.0 mg/kg/injection, schedule: Q04DX003 (ip), vehicle: saline with Tween-80 97 % of control | dose: 200.0 mg/kg/injection, schedule: Q04DX003 (ip), vehicle: saline with Tween-80 97 % of control | dose: 400.0 mg/kg/injection, schedule: Q04DX003 (ip), vehicle: saline with Tween-80 99 % of control

ICC1OC(c2ccccc2)OC2C(CI)OC(c3ccccc3)OC12 (stereo not given)
inactive: dose: 75.0 mg/kg/injection, schedule: Q01DX001 (ip), vehicle: carboxymethylcellulose (CMC) 95 % of control | dose: 150.0 mg/kg/injection, schedule: Q01DX001 (ip), vehicle: carboxymethylcellulose (CMC) 93 % of control | dose: 300.0 mg/kg/injection, schedule: Q01DX001 (ip), vehicle: carboxymethylcellulose (CMC) 88 % of control

CC1(C)N=C(N)N=C(N)N1c1ccccc1
inactive: dose: 12.0 mg/kg/injection, schedule: Q01DX009 (ip), vehicle: saline 104 % of control | dose: 12.0 mg/kg/injection, schedule: Q04DX003 (ip), vehicle: saline 97 % of control | dose: 25.0 mg/kg/injection, schedule: Q01DX009 (ip), vehicle: saline 99 % of control | dose: 25.0 mg/kg/injection, schedule: Q04DX003 (ip), vehicle: saline 101 % of control | dose: 50.0 mg/kg/injection, schedule: Q01DX009 (ip), vehicle: saline 98 % of control

CCCCN(CCCC)C(C)=O
inactive: dose: 50.0 mg/kg/injection, schedule: Q01DX001 (ip), vehicle: saline 94 % of control | dose: 50.0 mg/kg/injection, schedule: Q04DX002 (ip), vehicle: saline with Tween-80 109 % of control | dose: 100.0 mg/kg/injection, schedule: Q01DX001 (ip), vehicle: saline 100 % of control | dose: 100.0 mg/kg/injection, schedule: Q04DX002 (ip), vehicle: saline with Tween-80 95 % of control | dose: 200.0 mg/kg/injection, schedule: Q01DX001 (ip), vehicle: saline 100 % of control | dose: 200.0 mg/kg/injection, schedule: Q04DX002 (ip), vehicle: saline with Tween-80 98 % of control

c1ccc(CNCc2cccnc2)cc1
inactive: dose: 75.0 mg/kg/injection, schedule: Q01DX009 (ip), vehicle: other 91 % of control | dose: 150.0 mg/kg/injection, schedule: Q01DX009 (ip), vehicle: other 98 % of control

O=CNCC(=O)O
inactive: dose: 100.0 mg/kg/injection, schedule: Q04DX002 (ip), vehicle: saline 92 % of control | dose: 100.0 mg/kg/injection, schedule: Q04DX003 (ip), vehicle: saline 97 % of control | dose: 200.0 mg/kg/injection, schedule: Q04DX002 (ip), vehicle: saline 95 % of control | dose: 200.0 mg/kg/injection, schedule: Q04DX003 (ip), vehicle: saline 94 % of control | dose: 400.0 mg/kg/injection, schedule: Q04DX002 (ip), vehicle: saline 92 % of control | dose: 400.0 mg/kg/injection, schedule: Q04DX003 (ip), vehicle: saline 106 % of control

O=C(CC(=O)c1cccc([N+](=O)[O-])c1)Nc1ccccc1Br
inactive: [6] 94 % of control | [7] 91 % of control | [8] 94 % of control

CNC(=O)Oc1cccc(NC(=O)C=C(C)C)c1
inactive: [2] 91 % of control | [4] 89 % of control

O=P(Oc1ccccc1)(Oc1ccccc1)c1ccccc1
inactive: [6] 95 % of control | [7] 98 % of control | [8] 98 % of control

Reference: PubChem BioAssay AID248 (DTP/NCI, 2004)
